According to patent US20250367268A1, “Compositions and Methods for Treating Internal Bleeding and Hemorrhage” (priority 2024, published 2025):

How the values were obtained:
hemorrhagic shock = type: in vivo, rats
Protocol: Two studies of resuscitation by albumin after hemorrhage were performed. In the first study, resuscitation by a crystalloid (control) was compared to resuscitation with either a bolus of bovine serum albumin (BSA) saturated with oleic acid (OA-BSA) or a bolus of NEFA-free albumin, followed by crystalloid, as needed. As commercially available pharmaceutical grade albumin is human albumin (HSA) that is nearly saturated with caprylic acid, instead of oleic acid, in the second study OA-BSA, caprylic acid-saturated BSA (CA-BSA), and pharmaceutical grade human serum albumin (HSA) were compared. A crystalloid-only group (“Crystalloid Only Group”) was also run as a control. […] There were no significant differences among the Albumin Groups (all containing high concentrations of NEFA) in any of the other measurements.
Laparotomy was performed to induce trauma, then the opening was covered with plastic wrap. The right hind leg was elevated and an inflatable tourniquet (digit cuff, Hokanson, Bellevue, WA) was positioned on the leg, but not yet inflated. For the second albumin study, isoflurane was lowered to 1% immediately before start of hemorrhage. Rats were hemorrhaged (2 ml/min/kg BW) by syringe pump until MAP dropped to 35 mmHg (designated as time T=0 h). At that time, the tourniquet was inflated using a Portable Tourniquet System (Delfi Medical, Vancouver, Canada), representing first aid. The controlled hemorrhage rate was then reduced to 0.6 ml/min/kg to simulate hemorrhage not controlled by tourniquet (e.g., from another injury site or imperfect application). Blood pressure was maintained at 33-38 mmHg by adjusting the draw rate (0.2-0.8 ml/min/kg), until the total hemorrhage reached 27 ml/kg. […] The bolus size was chosen as the estimated dosage needed to replace the albumin lost to hemorrhage. […] At T=2 h, representing the maximum recommended time before conversion to hemostatic dressing 16, the tourniquet was deflated and removed. Surviving animals were euthanized at T=4 h by intravenous administration of 0.2 ml of sodium pentobarbital euthanasia solution (Beuthanasia, Merck Animal Health, Madison, NJ), while still under anesthesia. After euthanasia, the right lung was harvested for moisture analysis (MA160, Sartorious, Bohemia, NY) and the left lung for collection of BALF (3X bronchoalveolar lavage fluid with 3 ml saline). Following the final lavage, the left lung was infused with formalin fixative for histological analysis. The liver, heart, spleen, kidney, and jejunum were also collected and fixed in formalin for histological analysis.

[1] = system: Trauma and 27 ml/kg hemorrhagic shock; test: Second albumin study: trauma and 27 ml/kg hemorrhagic shock model, albumin bolus then crystalloid as needed; type: in vivo
Protocol: Rats were acclimated for at least 5 days after arrival at the facility prior to experimental procedures. Trauma and 27 ml/kg hemorrhagic shock models in the art were used with some modifications: 1) an extended observation period considered entirely pre-hospital to represent prolonged field care and 2) a reduction in isoflurane during hemorrhage, intended to reduce the mortality prior to resuscitation (FIG. 28). Rats were assigned into 4 treatment groups: Crystalloid (N=15), OA-saturated BSA (OA-BSA; N=17), CA-saturated BSA (CA-BSA; N=17), and pharmaceutical HSA (N=17). Adult, male Sprague Dawley rats (Charles River Laboratories, Houston, TX) between 325 and 400 g in body weight (BW) were induced with isoflurane (4%) in medical air, then maintained at 2-3% throughout instrumentation. Core temperature was maintained (36-37° C.) using a heating pad and monitored with a rectal probe (Physitemp, Clifton, NJ). The carotid artery was cannulated for continuous pressure recording, the left femoral artery for controlled hemorrhage, and the left femoral vein for blood sampling and resuscitation fluid administration. PE50 tubing for vessel cannulations was soaked overnight in heparin to reduce clotting.
Laparotomy was performed to induce trauma, then the opening was covered with plastic wrap. […]

| Substance | amount of resuscitation fluid required to keep pressure at a sufficient level (hemorrhagic shock; first study) [mL/kg] | effect on pressure relative to OA-BSA and Crystalloid Only Group (hemorrhagic shock; first study) | vascular leakage (hemorrhagic shock; rat, in vivo) | significantly reduced mortality compared to the Crystalloid Only Group (hemorrhagic shock; first study) | mortality (hemorrhagic shock; first study, FIG. 4) [%] | loss of protein from the circulation (plasma/total protein T2 to T4) ([1]; rat, in vivo) | loss of protein from the circulation (plasma/total protein T2 to T4) ([1]; second study, FIG. 2 and FIG. 3) |
| --- | --- | --- | --- | --- | --- | --- | --- |
| NEFA-free albumin: albumin preparation with a NEFA content of 0-0.14% by weight of albumin; bovine serum albumin in the experiments | 46 | intermediate between the other two groups | did not cause vascular leakage | – | – | – | – |
| OA-BSA: bovine serum albumin (BSA) saturated with oleic acid, 25% bolus | 6 | – | – | significantly reduced mortality | 8 | significant drop | – |
| CA-BSA: caprylic acid-saturated BSA | – | – | – | – | – | – | significant drop |
